In article PMC12481569, “Novltex: A New Class of Antibiotics with Potent Activity against Multidrug-Resistant Bacterial Pathogens–Design, Synthesis, and Biological Evaluation” (Journal of Medicinal Chemistry, 2025):
Positions of bridges follow the written chain, without caps; N, C: chain ends. Non-standard residues stand in square brackets, D forms with d. Residues, ends and D or L forms follow the SMILES beside them. dCha = N[C@H](CC1CCCCC1)C(=O)O

Columns and labels:
MRSA ATCC 33591 = assay: Resistance study on agar; format: cell-based, Staphylococcus aureus; details: 10× MIC on agar, 24 h, 37 °C
Experimental: MICs were performed as previously reported 4. For MIC testing all peptides were dissolved in DMSO.
Bacterial cultures were grown overnight on Mueller-Hinton Agar (MHA) plates and adjusted to a final inoculum of 10^5 – 10^6 CFU/mL. 100 µl of ino culum in Meuller -Hinton broth (MHB) was mixed with equal volume of peptides (dissolved in MHB) at 2x their concentration in a 96 well plate . […]
MIC values were determined in the media contain ing polysorbate 80 (0.002%, v/v) to prevent non -specific adsorption of the peptides to plastic surfaces. The final peptides concentrations ranged from 0.0625 – 32 µg/mL. The 96 well plates were then incubated at 37 °C for 24 h. All the experiments were performed in two independent duplicates and the MIC was determined as the lowest concentration in which no visible growth was observed. […]
VIII. Time dependent killing of bacteria and resistance studies by analogue 12 […]
Resistance evaluations were conducted following previously described protocols 5. […]

MRSA DM21455 = assay: Cytoplasmic membrane potential DiSC3(5) assay; format: cell-based, Staphylococcus aureus; details: 1× to 16× MIC, 1 h, room temperature, ex 622/em 670 nm; pronounced at 4× MIC
Experimental: To determine whether the bactericidal activity of analogue 12 is linked to bacterial membrane perturbations, we performed a DiSC3(5) assay, which utilizes a membrane-potential-sensitive dye to assess cytoplasmic membrane depolarization of MRSA. […]
day, cells were treated in triplicates with increasing concentrations of Novltex analogue 12, as indicated in the corresponding figure and the figure legend (Figure 4A-C). Cells were treated with 1 µM Staurosporine (MedChemExpress #HY-15141) as a positive kill control. Cell viability assessed after 24 h or 48 h incubation using an MTS-based CellTiter 96® AQueous One Solution Cell Proliferation Assay (Promega #G3582, Southampton UK) as per manufacturer’s instructions. Absorbance was recorded at 490 nm. Relative cell viability was determined by subtracting the blank (cell culture medium and MTS only) from individual values before normalizing against the untreated control.
Anonymized human blood samples were received from the Health Sciences Authority, Singapore and used as per the institutional guidelines and approved by the Institutional Review Board (IRB -2023-1019) of Nanyang Technological University Singapore. […] The supernatant was transferred to a new 96-well microplate and the absorbance was measured at 576 nm in the Infinite M200 monochromator microplate reader (Tecan Group Ltd., Switzerland). […]

In the case of `CC(C)C[C@@H]1NC(=O)[C@H](C)NC(=O)[C@H](NC(=O)[C@H](CO)NC(=O)[C@@H](CCCCN)NC(=O)[C@@H](CC2CCCCC2)NC(=O)[C@@H](N)Cc2ccccc2)[C@H](C)OC(=O)[C@H](CC(C)C)NC1=O` [analogue 12, Leu2Cha–Novltex] (H-F[dCha][dK]S[dT]ALL; ester 5-C), the “emergence of resistant mutants” value (MRSA ATCC 33591) is reported as “No resistant MRSA ATCC 33591 mutants emerged” and the “change in DiSC3(5) fluorescence intensity (membrane depolarization)” value (MRSA DM21455) is reported as “substantial increase in fluorescence intensity”.
